pIC50: −log10 of the molar value. Read-outs that look alike come from different tables or passages of the source.
How the values were obtained:
[1] = biological target: STK4 (Homo sapiens (Human), UniProt Q13043); test: ADP-Glo kinase assay, STK4; format: biochemical; conditions: ADP-Glo, 50 μM ATP; read-out: STK4 IC50
Method: (§1) The STK3 kinase assay was performed in 5 μL reaction buffer containing 50 ng recombinant human STK3 protein (full length, SignalChem #S24-10G; Richmond, Canada), 250 μg/mL myelin basic protein (Sigma-Aldrich #M1891; St. Louis, MO, USA), and 50 μM ATP (Sigma-Aldrich #A7699). The STK4 kinase assay was performed in 5 μL reaction buffer containing 50 ng recombinant human STK4 protein (full length, SignalChem #S25-10G), 300 μg/mL Axltide (SignalChem #A16-58), and 50 μM ATP. […] Three experiments were performed, each in triplicate.

[2] = biological target: STK3 (Homo sapiens (Human), UniProt Q13188); test: ADP-Glo kinase assay, STK3; format: biochemical
Method: as §1

[3] = ADP-Glo, 50 μM ATP, read-out: STK3 IC50

Chain of STK4 (Q13043 whole entry): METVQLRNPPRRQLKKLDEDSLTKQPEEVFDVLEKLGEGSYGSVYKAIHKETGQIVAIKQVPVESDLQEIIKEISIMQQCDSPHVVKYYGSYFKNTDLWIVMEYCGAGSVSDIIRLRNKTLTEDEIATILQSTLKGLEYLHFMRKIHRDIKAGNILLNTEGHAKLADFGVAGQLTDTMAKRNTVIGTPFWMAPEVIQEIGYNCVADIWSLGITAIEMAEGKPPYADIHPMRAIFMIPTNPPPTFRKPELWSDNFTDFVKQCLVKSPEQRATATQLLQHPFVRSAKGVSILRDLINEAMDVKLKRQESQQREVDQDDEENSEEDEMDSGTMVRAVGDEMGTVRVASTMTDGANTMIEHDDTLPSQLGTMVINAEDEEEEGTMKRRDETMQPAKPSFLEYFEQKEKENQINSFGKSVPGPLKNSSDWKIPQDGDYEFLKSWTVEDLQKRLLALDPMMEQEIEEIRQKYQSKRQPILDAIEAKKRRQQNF
Chain of STK3 (Q13188 whole entry): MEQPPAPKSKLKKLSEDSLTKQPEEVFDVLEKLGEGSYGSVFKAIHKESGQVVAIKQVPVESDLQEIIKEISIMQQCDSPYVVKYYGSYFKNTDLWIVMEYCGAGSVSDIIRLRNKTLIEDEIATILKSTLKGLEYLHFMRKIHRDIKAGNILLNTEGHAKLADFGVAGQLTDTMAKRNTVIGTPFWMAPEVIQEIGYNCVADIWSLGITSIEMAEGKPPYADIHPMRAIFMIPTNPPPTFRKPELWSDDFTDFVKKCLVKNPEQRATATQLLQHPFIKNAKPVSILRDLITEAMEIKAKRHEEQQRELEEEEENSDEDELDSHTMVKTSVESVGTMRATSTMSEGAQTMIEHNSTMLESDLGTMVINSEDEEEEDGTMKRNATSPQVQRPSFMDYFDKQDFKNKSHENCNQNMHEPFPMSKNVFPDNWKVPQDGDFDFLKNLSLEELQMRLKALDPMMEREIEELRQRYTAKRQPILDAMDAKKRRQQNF

## Clc1cccc(-c2c[nH]c3ncnc(NCc4ccc(Cl)nc4)c23)c1 [Compound 86, 5-(3-chlorophenyl)-N-((6-chloropyridin-3-yl)methyl)-7H-pyrrolo[2,3-d]pyrimidin-4-amine]
[1]
  pIC50: < 5.30
[2]; [3]
  pIC50: < 5.30

## Clc1cccc(-c2c[nH]c3ncnc(N4CCC(c5ccccc5)CC4)c23)c1 [Compound 87, 5-(3-chlorophenyl)-4-(4-phenylpiperidin-1-yl)-7H-pyrrolo[2,3-d]pyrimidine]
[1]
  pIC50: < 5.30
[2]; [3]
  pIC50: < 5.30

## Clc1cccc(-c2c[nH]c3ncnc(NCCC(c4ccccc4)c4ccccc4)c23)c1 [Compound 88, 5-(3-chlorophenyl)-N-(3,3-diphenylpropyl)-7H-pyrrolo[2,3-d]pyrimidin-4-amine]
[1]
  pIC50: < 5.30
[2]; [3]
  pIC50: < 5.30

## Clc1cccc(-c2c[nH]c3ncnc(N4CCN(c5ccccc5)CC4)c23)c1 [Compound 89, 5-(3-chlorophenyl)-4-(4-phenylpiperazin-1-yl)-7H-pyrrolo[2,3-d]pyrimidine]
[1]
  pIC50: < 5.30
[2]; [3]
  pIC50: < 5.30

## Clc1cccc(-c2c[nH]c3ncnc(N4CCC(Cc5ccccc5)CC4)c23)c1 [Compound 90, 4-(4-benzylpiperidin-1-yl)-5-(3-chlorophenyl)-7H-pyrrolo[2,3-d]pyrimidine]
[1]
  pIC50: < 5.30
[2]; [3]
  pIC50: < 5.30

## Cc1cccc(CNc2ncnc3[nH]cc(-c4cccc(Cl)c4)c23)c1 [Compound 91, 5-(3-chlorophenyl)-N-(3-methylbenzyl)-7H-pyrrolo[2,3-d]pyrimidin-4-amine]
[1]
  pIC50: < 5.30
[2]; [3]
  pIC50: < 5.30

## Clc1cccc(-c2coc3nccc(N4CCOCC4)c23)c1 [Compound 94, 3-(3-chlorophenyl)-4-morpholinofuro[2,3-b]pyridine]
[1]
  pIC50: < 5.30
[2]; [3]
  pIC50: < 5.30

## Cn1cc(-c2cccc(Cl)c2)c2c(N3CCOCC3)ncnc21 [Compound 95, 4-(5-(3-chlorophenyl)-7-methyl-7H-pyrrolo[2,3-d]pyrimidin-4-yl)morpholine]
[1]
  pIC50: < 5.30
[2]; [3]
  pIC50: < 5.30

## NS(=O)(=O)c1ccc(Nc2nc(N3CCOCC3)c3c(-c4cccc(Cl)c4)c[nH]c3n2)cc1 [Compound 96, 4-((5-(3-chlorophenyl)-4-morpholino-7H-pyrrolo[2,3-d]pyrimidin-2-yl)amino)benzenesulfonamide]
[1]
  pIC50: > 6.00
[2]; [3]
  pIC50: 5.30 to 6.00

## C=CC(=O)Cc1nc(N2CCOCC2)c2c(-c3cccc(Cl)c3)c[nH]c2n1 [Compound 97, 1-(5-(3-chlorophenyl)-4-morpholino-7H-pyrrolo[2,3-d]pyrimidin-2-yl)but-3-en-2-one]
[1]
  pIC50: < 5.30
[2]; [3]
  pIC50: < 5.30

## CNS(=O)(=O)c1ccc(Nc2nc(N3CCOCC3)c3c(-c4cccc(Cl)c4)c[nH]c3n2)cc1 [Compound 98, 4-((5-(3-chlorophenyl)-4-morpholino-7H-pyrrolo[2,3-d]pyrimidin-2-yl)amino)-N-methylbenzenesulfonamide]
[1]
  pIC50: > 6.00
[2]; [3]
  pIC50: > 6.00

## COC(=O)c1ccc(Nc2nc(N3CCOCC3)c3c(-c4cccc(Cl)c4)c[nH]c3n2)cc1 [Compound 99, methyl 4-((5-(3-chlorophenyl)-4-morpholino-7H-pyrrolo[2,3-d]pyrimidin-2-yl)amino)benzoate]
[1]
  pIC50: < 5.30
[2]; [3]
  pIC50: < 5.30

## O=C(O)c1ccc(Nc2nc(N3CCOCC3)c3c(-c4cccc(Cl)c4)c[nH]c3n2)cc1 [Compound 100, 4-((5-(3-chlorophenyl)-4-morpholino-7H-pyrrolo[2,3-d]pyrimidin-2-yl)amino)benzoic acid]
[1]
  pIC50: > 6.00
[2]; [3]
  pIC50: 5.30 to 6.00

## O=[N+]([O-])c1ccc(Nc2nc(N3CCOCC3)c3c(-c4cccc(Cl)c4)c[nH]c3n2)cc1 [Compound 101, 5-(3-chlorophenyl)-4-morpholino-N-(4-nitrophenyl)-7H-pyrrolo[2,3-d]pyrimidin-2-amine]
[1]
  pIC50: < 5.30
[2]; [3]
  pIC50: < 5.30

## CC(O)CNc1ncnc2[nH]cc(-c3cccc(Cl)c3)c12 (stereo not shown) [Compound 104, 1-((5-(3-chlorophenyl)-7H-pyrrolo[2,3-d]pyrimidin-4-yl)amino)propan-2-ol]
[1]
  pIC50: > 6.00
[2]; [3]
  pIC50: > 6.00

## CN(C)C1CCN(c2ncnc3[nH]cc(-c4cccc(Cl)c4)c23)CC1 [Compound 107, 1-(5-(3-chlorophenyl)-7H-pyrrolo[2,3-d]pyrimidin-4-yl)-N,N-dimethylpiperidin-4-amine]
[1]
  pIC50: > 6.00
[2]; [3]
  pIC50: > 6.00

## CC1CCN(c2ncnc3[nH]cc(-c4cccc(Cl)c4)c23)CC1 [Compound 109, 5-(3-chlorophenyl)-4-(4-methylpiperidin-1-yl)-7H-pyrrolo[2,3-d]pyrimidine]
[1]
  pIC50: > 6.00
[2]; [3]
  pIC50: > 6.00

## COC1CCN(c2ncnc3[nH]cc(-c4cccc(Cl)c4)c23)CC1 [Compound 110, 5-(3-chlorophenyl)-4-(4-methoxypiperidin-1-yl)-7H-pyrrolo[2,3-d]pyrimidine]
[1]
  pIC50: > 6.00
[2]; [3]
  pIC50: > 6.00

## CCCCNc1ncnc2[nH]cc(-c3cccc(Cl)c3)c12 [Compound 116, N-butyl-5-(3-chlorophenyl)-7H-pyrrolo[2,3-d]pyrimidin-4-amine]
[1]
  pIC50: > 6.00
[2]; [3]
  pIC50: > 6.00

## CC(CO)CNc1ncnc2[nH]cc(-c3cccc(Cl)c3)c12 (stereo not shown) [Compound 117, 3-((5-(3-chlorophenyl)-7H-pyrrolo[2,3-d]pyrimidin-4-yl)amino)-2-methylpropan-1-ol]
[1]
  pIC50: > 6.00
[2]; [3]
  pIC50: > 6.00

## O=C1CCN(c2ncnc3[nH]cc(-c4cccc(Cl)c4)c23)CC1 [Compound 118, 1-(5-(3-chlorophenyl)-7H-pyrrolo[2,3-d]pyrimidin-4-yl)piperidin-4-one]
[1]
  pIC50: > 6.00
[2]
  pIC50: 5.30 to 6.00

## N#Cc1ccc(Nc2nc(N3CCOCC3)c3c(-c4cccc(Cl)c4)c[nH]c3n2)cc1 [Compound 120, 4-((5-(3-chlorophenyl)-4-morpholino-7H-pyrrolo[2,3-d]pyrimidin-2-yl)amino)benzonitrile]
[1]
  pIC50: < 5.30
[2]; [3]
  pIC50: < 5.30

## COCC(C)CN(C)c1ncnc2[nH]cc(-c3cccc(Cl)c3)c12 (stereo not shown) [Compound 122, 5-(3-chlorophenyl)-N-(3-methoxy-2-methylpropyl)-N-methyl-7H-pyrrolo[2,3-d]pyrimidin-4-amine]
[1]
  pIC50: 5.30 to 6.00
[2]; [3]
  pIC50: 5.30 to 6.00

## COCC(C)CNc1ncnc2[nH]cc(-c3cccc(Cl)c3)c12 (stereo not shown) [Compound 123, 5-(3-chlorophenyl)-N-(3-methoxy-2-methylpropyl)-7H-pyrrolo[2,3-d]pyrimidin-4-amine]
[1]
  pIC50: > 6.00
[2]; [3]
  pIC50: > 6.00

## CC(=O)NC1(C)CCN(c2ncnc3[nH]cc(-c4cccc(Cl)c4)c23)CC1 [Compound 124, N-(1-(5-(3-chlorophenyl)-7H-pyrrolo[2,3-d]pyrimidin-4-yl)-4-methylpiperidin-4-yl)acetamide]
[1]
  pIC50: 5.30 to 6.00
[2]; [3]
  pIC50: 5.30 to 6.00

## CC(CNc1ncnc2[nH]cc(-c3cccc(Cl)c3)c12)C(N)=O (stereo not shown) [Compound 125, 3-((5-(3-chlorophenyl)-7H-pyrrolo[2,3-d]pyrimidin-4-yl)amino)-2-methylpropanamide]
[1]
  pIC50: > 6.00
[2]; [3]
  pIC50: > 6.00

## CC(CNc1ncnc2[nH]cc(-c3cccc(Cl)c3)c12)C(=O)O (stereo not shown) [Compound 126, 3-((5-(3-chlorophenyl)-7H-pyrrolo[2,3-d]pyrimidin-4-yl)amino)-2-methylpropanoic acid]
[1]
  pIC50: 5.30 to 6.00
[2]; [3]
  pIC50: 5.30 to 6.00

## CC(CN)CNc1ncnc2[nH]cc(-c3cccc(Cl)c3)c12 (stereo not shown) [Compound 127, N^1-(5-(3-chlorophenyl)-7H-pyrrolo[2,3-d]pyrimidin-4-yl)-2-methylpropane-1,3-diamine]
[1]
  pIC50: > 6.00
[2]; [3]
  pIC50: > 6.00

## CC(=O)N(C)CC(C)CN(C)c1ncnc2[nH]cc(-c3cccc(Cl)c3)c12 (stereo not shown) [Compound 128]
[1]
  pIC50: 5.30 to 6.00
[2]; [3]
  pIC50: > 6.00

## CC(=O)NCC(C)CNc1ncnc2[nH]cc(-c3cccc(Cl)c3)c12 (stereo not shown) [Compound 129, N-(3-((5-(3-chlorophenyl)-7H-pyrrolo[2,3-d]pyrimidin-4-yl)amino)-2-methylpropyl)acetamide]
[1]
  pIC50: > 6.00
[2]; [3]
  pIC50: > 6.00

## CC(=O)NCC(C)CNc1ncnc2[nH]cc(-c3ccccc3)c12 (stereo not shown) [Compound 130, N-(2-methyl-3-((5-phenyl-7H-pyrrolo[2,3-d]pyrimidin-4-yl)amino)propyl)acetamide]
[1]
  pIC50: 5.30 to 6.00
[2]; [3]
  pIC50: 5.30 to 6.00

## CNCC(C)CNc1ncnc2[nH]cc(-c3cccc(Cl)c3)c12 (stereo not shown) [Compound 131, N^1-(5-(3-chlorophenyl)-7H-pyrrolo[2,3-d]pyrimidin-4-yl)-N^3,2-dimethylpropane-1,3-diamine]
[1]
  pIC50: < 5.30
[2]; [3]
  pIC50: < 5.30
